Results published in patent publication US5428031A, “Methods of treating cardiac arrhythmia” (priority 1993, dated 1995).

Tested on: guinea pig ventricular myocytes
Experiment: frequency-dependent effects on action potential duration (APD90) in isolated ventricular myocytes
Type: cell-based
Settings: for APD90 percent change at 0.01 µM / APD90 percent change at 0.03 µM / APD90 percent change at 0.1 µM: Cavia porcellus, Ventricular myocyte; for APD90 percent change at 0.01 µM: 10 nM; for APD90 percent change at 0.03 µM: 30 nM; for APD90 percent change at 0.1 µM: 100 nM; for APD90 % Change: Washout
Description: Guinea pig ventricular myocytes were isolated using a modification of the procedure described by Mitra R and Morad M., "A Uniform Enzymatic Method for Dissociation of Myocytes from Hearts and Stomachs of Nertilorates", Am. J. Physiol. 249:H1056-60 (1985). Excised hearts were perfused through the aorta (retrograde fashion) at a rate of 10 ml/min with oxygenated, warmed (37° C.) solutions described below. The heart was initially perfused for 7 minutes with a Tyrode's solution containing, in mM: 132 NaCl, 4 KCl, 1.2 MgCl2, 10 HEPES (formal name N-2-Hydroxyethylpiperazine-N-2-ethanesulfonic acid), 5 glucose, pH=7.2. The head was then perfused with the same nominally Ca^2+ -free solution containing 150 units/ml Type II collagenase (Worthington) and 0.5 units/ml Type XIV protease (Sigma) for 8 minutes. This perfusate was followed by a Tyrode's solution containing 0.2 mM CaCl2 (without enzymes) for 5 minutes. The digested ventricles were cut into small pieces and gently shaken until cells were visibly dispersed. The cells were stored at room temperature until use, within 8 hours after isolation.
Cell preparation: Same as described in section I.
Transmembrane action potential measurements were made using a technique similar to that described previously by Salata, J. J. and Wasserstrom, J. A. "Effects of quinicline on action potentials and ionic currents in isolated canine ventricular myocytes", Circ. Res. 62:324-337, 1988. The isolated ventricular myocytes were transferred to a glass bottom experimental perfusion chamber (12×25 mm) filled with a HEPES-Tyrode's solution containing in mM: 132 NaCl, 4 KCl, 1.8 CaCl2, 1.2 MgCl2, 10 HEPES, 5 glucose, pH=7.2 to a height of 2 mm. After the myocytes settled to the bottom of the chamber, they were continuously superfused with preheated HEPES-Tyrode's solution at a rate of 2.0 ml/min. The temperature was monitored and maintained at 36°±0.5° C. The experimental chamber was placed on the stage of an inverted microscope (Nikon Diaphot-TMD) to view the cells. Transmembrane potentials were recorded by means of conventional glass microelectrodes that were filled with 3M KCl and had tip resistances of 40-60 M.OMEGA.. The microelectrode was connected through a Ag--AgCl electrode to the headstage preamplifier (model HS-2, gain=1.0) of an operational amplifier with a high input impedance and variable input capacitance neutralization (Axoclamp -2A, Axon Instruments, Foster City, Calif.). The voltage drop across the microelectrode produced by current injection was compensated electronically with an active bridge circuit immediately-before impalement of a cell. The experimental bath was grounded through a 3M KCl agar bridge and a Ag--AgCl junction. The microelectrodes were positioned carefully at the cell surface using a hydraulic micromanipulator (Narishige Model MO-303, Greenvale, N.Y.). Penetration of the cell membrane was achieved by briefly (1-3 msec)increasing the input capacitance neutralization to cause oscillation of the amplifier. After establishing a stable microelectrode seal, the myocyte was lifted off the bottom of the chamber to allow complete superfusion of the cell. Action potentials were generated by passing current pulses of 1 msec in duration, and with an intensity of 1.2 times threshold at varying stimulus rates through the recording electrode. Cells were allowed to stabilize for 20 minutes before collection of data began. Voltage signals were digitized using an analog to digital converter (TL-1, DMA interface, Axon Instruments, Foster City, Calif.) at a sampling frequency of 2 kHz. Data acquisition and analysis were performed with pClamp software (Axon Instruments, Foster City, Calif.) and an AST 486 computer (Irvine, Calif.). Action potentials were stimulated at rates of either 60, 120, and 180 beats/min and were allowed to stabilized for 1 minute at each rate. […]

SMILES: CN1C(=O)[C@H](NC(=O)/C=C/c2ccc(Cl)cc2Cl)N=C(c2ccccc2)c2ccccc21 [Example 26, E-(+)-N-[(3R)-2,3-Dihydro-1-methyl-2-oxo-5-phenyl-1H-1,4-benzo-diazepin-3-yl]-3-(2,4-dichlorophenyl)-2-propenamide]
- APD90 percent change at 0.01 µM (60 beats/min): 9.4%
- APD90 percent change at 0.01 µM (120 beats/min): 10.1%
- APD90 percent change at 0.01 µM (180 beats/min): 12.4%
- APD90 percent change at 0.03 µM (60 beats/min): 16%
- APD90 percent change at 0.03 µM (120 beats/min): 14.8%
- APD90 percent change at 0.03 µM (180 beats/min): 14.4%
- APD90 percent change at 0.1 µM (60 beats/min): 24.7%
- APD90 percent change at 0.1 µM (120 beats/min): 24.3%
- APD90 percent change at 0.1 µM (180 beats/min): 22.9%
- APD90 % Change (60 beats/min): 4.2%
- APD90 % Change (120 beats/min): 5.3%
- APD90 % Change (180 beats/min): 5.9%
- reversibility of APD90 increase (after 20 min of washout): nearly completely reversible
- frequency dependence of APD90 increase (at higher concentrations): frequency-independent manner
- frequency dependence of APD90 increase (at lower concentrations (10 nM)): forward frequency-dependent manner
- effect on action potential duration (isolated guinea pig myocytes): concentration and rate-dependent increases in the action potential duration
